Patent publication US12125561B2, “Determination of JAK-STAT3 pathway activity using unique combination of target genes” (InnoSIGN B.V., priority 2017, dated 2024)

Tests used:
Format in all cases: cell-based
[1] = tested on: JAK-STAT3 cellular signaling pathway in PC9 NSCLC cells; test: JAK-STAT3 pathway activity prediction, lung model, data set GSE67051, PC9; details: PC 9, treated for 8 days, group 1 vs group 2; FIG. 13
Text: (§1) Herein, an exemplary Bayesian network model as shown in FIG. 2 was used to model the transcriptional program of the JAK-STAT3 cellular signaling pathway in a simple manner. The model consists of three types of nodes: (a) a transcription factor (TF) element (with states “absent” and “present”) in a first layer 1; (b) target genes TG1, TG2, TGn (with states “down” and “up”) in a second layer 2, and; (c) measurement nodes linked to the expression levels of the target genes in a third layer 3. These can be microarray probesets PS1,1, PS1,2, PS1,3, PS2,1, PSn,1, PSn,m (with states “low” and “high”), as preferably used herein, but could also be other gene expression measurements such as RNAseq or RT-qPCR.
(§2) A suitable implementation of the mathematical model, herein, the exemplary Bayesian network model, is based on microarray data. The model describes (i) how the expression levels of the target genes depend on the activation of the TF element, and (ii) how probeset intensities, in turn, depend on the expression levels of the respective target genes. For the latter, probeset intensities may be taken from fRMA pre-processed Affymetrix HG-U133Plus2.0 microarrays, which are widely available from the Gene Expression Omnibus (GEO, www.ncbi.nlm.nih.gov/geo) and ArrayExpress (www.ebi.ac.uk/arrayexpress). […]

[2] = tested on: JAK-STAT3 cellular signaling pathway in EGFR mutant cells of lung cancer; test: JAK-STAT3 pathway activity, lung Bayesian network model, calibration on data set GSE57156; details: calibration samples, group 1; DMSO-treated cells considered active; FIG. 9
Text: Herein, available expression data sets of EGFR mutant cells of lung cancer from data set GSE57156 were used.
as §1
A suitable implementation of the mathematical model, herein, the exemplary Bayesian network model, is based on microarray data. The model describes (i) how the expression levels of the target genes depend on the activation of the TF element, and (ii) how probeset intensities, in turn, depend on the expression levels of the respective target genes. […]

[3] = tested on: JAK-STAT3 cellular signaling pathway in epithelial cells from HaCaT cell lines; test: JAK-STAT3 pathway activity prediction, lung model, data set GSE32975; details: EGF vs unstimulated control; gefitinib samples in group 6 and group 7; FIG. 11
Text: Epithelial cells from HaCaT cell lines were stimulated with epidermal growth factor (EGF) in data set GSE32975. Each group represents one replica from the cell line.

[4] = tested on: JAK-STAT3 cellular signaling pathway in Ishikawa H cells (derived endometrial carcinomas); test: JAK-STAT3 pathway activity prediction, lung model, data set GSE20854; details: FIG. 12
Method: Ishikawa H cells (derived endometrial carcinomas) were dosed with either EGF (epidermal growth factor) or Iressa (gefitinib) for 12 or 24 hours in data set GSE20854.

[5] = tested on: JAK-STAT3 cellular signaling pathway in tamoxifen initiated, transformation inducible, breast cancer model system; test: JAK-STAT3 pathway activity prediction, lung model, data set GSE64536; details: FIG. 15
Text: as §1, §2

[6] = tested on: JAK-STAT3 cellular signaling pathway in Sez-4 cell line (cutaneous T-cell lymphoma); test: JAK-STAT3 pathway activity prediction, blood model, data set GSE8685; details: cells starved of IL-2 for 16 hours, then IL-2 (200 U) resp. IL-15 (20 ng/mL); FIG. 16
Method: A Sez-4 cell line which was derived from a cutaneous T-cell lymphoma (data set GSE8685). […] IL-15 (20 ng/mL).

[7] = dosed for 12 hours, compared to undosed samples harvested at 12 hours
[8] = dosed for 24 hours, compared to undosed samples harvested at 24 hours

Row | Molecule | predicted STAT3 pathway activity (odds that the TF element is present) [3] | predicted STAT3 pathway activity (odds that the TF element is present) [4, 7] | predicted STAT3 pathway activity (odds that the TF element is present) [4, 8] | other results
1 | C#Cc1cccc(Nc2ncnc3cc(OCCOC)c(OCCOC)cc23)c1 [erlotinib] | – | – | – | predicted STAT3 activity of DMSO-treated cells compared to erlotinib-treated cells [1]: higher; JAK-STAT3 pathway status of treated cells (odds that the TF element is present) [2]: JAK-STAT3 inactive
2 | COc1cc2ncnc(Nc3ccc(F)c(Cl)c3)c2cc1OCCCN1CCOCC1 [gefitinib] | decreased STAT3 pathway activity | decreased STAT3 pathway activity | decreased STAT3 pathway activity | –
3 | CC/C(=C(\c1ccccc1)c1ccc(OCCN(C)C)cc1)c1ccccc1 [tamoxifen] | – | – | – | predicted JAK-STAT3 activity of EtOH-treated cells compared to cells initiated with tamoxifen ([5]; 4 hours, group 1 vs group 3): higher; predicted JAK-STAT3 activity of EtOH-treated cells compared to cells initiated with tamoxifen ([5]; 24 hours, group 2 vs group 4): higher
4 | IL-15: cytokine added to IL-2 starved Sez-4 cells | – | – | – | predicted JAK-STAT3 pathway status compared to the control group [6]: active
5 | epidermal growth factor (NSDSECPLSHDGYCLHDGVCMYIEALDKYACNCVVGYIGERCQYRDLKWWELR; Epidermal growth factor; UniProt P01133 971-1023, looked up) [EGF, epidermal growth factor (EGF)] | higher STAT3 activity | higher STAT3 activity | higher STAT3 activity | –
